In brackets after ≈: the same amount, converted by molar mass. Activity calls are given as the source filed them. No cut-off for these calls is given here.
Key:
[1] = biological target: Tyrosine-protein kinase JAK2 (Homo sapiens, UniProt O60674); assay: Inhibition of GST-fused JAK2 (808 to 1132 residues)(unknown origin) using Carboxyfluorescein-Ahx-GGEEEEYFELVKKKK peptide as substrate incubated for 30 mins in presence of ATP by caliper microfluidic mobility shift assay
JAK2/JAK1 = JAK2/JAK1 (Homo sapiens, UniProt O60674+P23458); assay: Inhibition of JAK1/2-mediated STAT1 phosphorylation in human M07E cells preincubated for 30 mins followed by IFN-alpha stimulation measured after 15 mins by flow cytometry; format: cell-based
[2] = Stability in human whole blood assessed as half life at 1 uM incubated upto 8 hrs by LC-MS/MS analysis; format: ADME, tissue-based
[3] = Metabolic stability in human skin S9 fraction measured upto 120 mins by LC-MS analysis; format: ADME, subcellular
[4] = Half life in human blood; format: ADME, tissue-based
C-C motif chemokine 17 = biological target: T1, C-C motif chemokine 17 (Homo sapiens, UniProt Q92583); assay: Inhibition of TARC in human skin immersion culture at 10 uM preincubated for 3 hrs followed by IL-4/IL-13 stimulation measured after 18 hrs by MSD assay relative to control; format: tissue-based, Skin of body; conditions: time 21 hrs
T1 sequence (Q92583 whole entry): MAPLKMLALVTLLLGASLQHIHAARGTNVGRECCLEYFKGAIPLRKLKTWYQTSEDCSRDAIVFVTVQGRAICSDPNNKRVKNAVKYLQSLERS

[5] = Permeability of compound; format: ADME; conditions: not told; read-out: permeability
[6] = Lipophilicity, LogD of compound; format: physicochemical; conditions: octanol/water
[7] = Thermodynamic solubility of the compound at pH 6.8 using crystalline form of sample; format: physicochemical; conditions: read-out: Therm_solubility
[8] = Saturation solubility of compound in PEG400/transcutol/benzyl alcohol/water mixture using crystalline form of sample; format: physicochemical
Homo sapiens [9] = assay: (§1) Inhibition of TARC gene expression in IL-4/IL-13-stimulated fresh human skin explant using Franz diffusion cell model at 0.5 % administered topically preincubated overnight followed by fresh media replacement in receiver fluid without compound and subsequently stimulated with IL-4/IL-13 measured after 24 hrs by RT-qPCR analysis; format: functional, tissue-based; conditions: Skin of body
Homo sapiens [10] = assay: as §1, with “MMP12” for “TARC”; format: functional, tissue-based; conditions: Skin of body
Homo sapiens [11] = assay: as §1, with “Eotaxin-3” for “TARC”; format: functional, tissue-based; conditions: Skin of body
[12] = (§2) Stability of compound in fresh human skin explant using Franz diffusion cell model assessed as compound concentration in dermis at 0.5 % administered topically preincubated overnight followed by fresh media replacement in receiver fluid without compound and subsequently stimulated with IL-4/IL-13 measured after 40 hrs by LC-MS/MS analysis; format: ADME, tissue-based, Skin of body; conditions: topical or ocular, read-out: Ct
[13] = as §2, with “Drug penetration” for “Stability of compound”, “receiver fluid” for “dermis”, “24” for “40”; format: ADME, tissue-based, Skin of body; conditions: artificial membrane
Homo sapiens [14] = assay: Downregulation of GSVA score in human abdominal skin model at 0.2 % administered topically as cream treated for 24 hrs followed by removal of cream and stratum corneum and subsequently stimulated with IL-4/IL-13 measured after 3 hrs; format: functional, tissue-based; conditions: Abdomen skin, route top, time 27.0 hrs
[15] = biological target: Tyrosine-protein kinase JAK1 (Homo sapiens, UniProt P23458); assay: Inhibition of GST-fused JAK1 (866 to 1154 residues)(unknown origin) using FITC-Ahr-KKSRGDYMTMQIG-NH2 peptide as substrate incubated for 30 mins in presence of ATP by caliper microfluidic mobility shift assay
[16] = biological target: T2, Tyrosine-protein kinase JAK3 (Homo sapiens, UniProt P52333); assay: Inhibition of GST-fused JAK3 (811 to 1124 residues)(unknown origin) using Carboxyfluorescein-Ahx-GGEEEEYFELVKKKK peptide as substrate incubated for 30 mins in presence of ATP by caliper microfluidic mobility shift assay
T2 sequence (P52333 whole entry): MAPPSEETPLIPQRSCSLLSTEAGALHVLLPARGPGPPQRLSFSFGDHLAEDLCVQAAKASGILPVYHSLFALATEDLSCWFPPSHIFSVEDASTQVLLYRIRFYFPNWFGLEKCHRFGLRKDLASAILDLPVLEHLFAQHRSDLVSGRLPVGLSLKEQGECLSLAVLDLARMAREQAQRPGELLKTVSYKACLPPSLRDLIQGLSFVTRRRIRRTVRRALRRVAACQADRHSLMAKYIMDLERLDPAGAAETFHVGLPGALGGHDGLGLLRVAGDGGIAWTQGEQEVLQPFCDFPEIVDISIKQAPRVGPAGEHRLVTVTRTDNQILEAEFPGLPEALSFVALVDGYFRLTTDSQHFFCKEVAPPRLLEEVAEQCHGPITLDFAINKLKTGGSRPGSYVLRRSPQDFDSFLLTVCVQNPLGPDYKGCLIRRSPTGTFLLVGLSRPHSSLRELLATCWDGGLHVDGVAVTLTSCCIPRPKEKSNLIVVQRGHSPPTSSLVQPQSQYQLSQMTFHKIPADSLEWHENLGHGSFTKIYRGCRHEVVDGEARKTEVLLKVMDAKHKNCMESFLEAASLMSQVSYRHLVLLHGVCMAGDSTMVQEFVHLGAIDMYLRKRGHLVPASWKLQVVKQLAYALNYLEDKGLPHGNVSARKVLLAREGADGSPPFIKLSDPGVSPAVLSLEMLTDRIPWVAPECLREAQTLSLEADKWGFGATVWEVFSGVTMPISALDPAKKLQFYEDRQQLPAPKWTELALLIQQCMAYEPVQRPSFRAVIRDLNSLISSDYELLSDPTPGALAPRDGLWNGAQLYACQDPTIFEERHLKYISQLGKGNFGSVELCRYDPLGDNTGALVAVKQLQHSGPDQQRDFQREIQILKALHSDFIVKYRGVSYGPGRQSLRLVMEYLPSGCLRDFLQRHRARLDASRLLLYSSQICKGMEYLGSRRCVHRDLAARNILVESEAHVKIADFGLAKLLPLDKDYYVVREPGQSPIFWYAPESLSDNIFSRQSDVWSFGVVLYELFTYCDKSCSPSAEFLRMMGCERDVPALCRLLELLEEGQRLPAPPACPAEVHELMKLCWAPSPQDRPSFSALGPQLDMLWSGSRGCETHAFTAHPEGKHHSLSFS

[17] = biological target: Non-receptor tyrosine-protein kinase TYK2 (Homo sapiens, UniProt P29597); assay: Inhibition of GST-fused TYK2 (888 to 1187 residues)(unknown origin) using FITC-Ahr-KKSRGDYMTMQIG-NH2 peptide as substrate incubated for 30 mins in presence of ATP by caliper microfluidic mobility shift assay
JAK3/JAK1 [18] = biological target: T3, JAK3/JAK1 (Homo sapiens, UniProt P23458+P52333); assay: Inhibition of JAK1/3-mediated STAT5 phosphorylation in human M07E cells preincubated for 30 mins followed by IL-15 stimulation measured after 15 mins by flow cytometry; format: cell-based
JAK3/JAK1 [19] = biological target: T3, JAK3/JAK1; assay: Inhibition of JAK1/3-mediated STAT5 phosphorylation in human whole blood incubated for 30 mins followed by IL-2 addition measured after 15 mins by flow cytometry; format: tissue-based
[20] = biological target: T4, Eukaryotic translation initiation factor 2-alpha kinase 3 (Homo sapiens, UniProt Q9NZJ5); assay: Inhibition of EIF2AK3 (unknown origin)
T4 sequence (Q9NZJ5 whole entry): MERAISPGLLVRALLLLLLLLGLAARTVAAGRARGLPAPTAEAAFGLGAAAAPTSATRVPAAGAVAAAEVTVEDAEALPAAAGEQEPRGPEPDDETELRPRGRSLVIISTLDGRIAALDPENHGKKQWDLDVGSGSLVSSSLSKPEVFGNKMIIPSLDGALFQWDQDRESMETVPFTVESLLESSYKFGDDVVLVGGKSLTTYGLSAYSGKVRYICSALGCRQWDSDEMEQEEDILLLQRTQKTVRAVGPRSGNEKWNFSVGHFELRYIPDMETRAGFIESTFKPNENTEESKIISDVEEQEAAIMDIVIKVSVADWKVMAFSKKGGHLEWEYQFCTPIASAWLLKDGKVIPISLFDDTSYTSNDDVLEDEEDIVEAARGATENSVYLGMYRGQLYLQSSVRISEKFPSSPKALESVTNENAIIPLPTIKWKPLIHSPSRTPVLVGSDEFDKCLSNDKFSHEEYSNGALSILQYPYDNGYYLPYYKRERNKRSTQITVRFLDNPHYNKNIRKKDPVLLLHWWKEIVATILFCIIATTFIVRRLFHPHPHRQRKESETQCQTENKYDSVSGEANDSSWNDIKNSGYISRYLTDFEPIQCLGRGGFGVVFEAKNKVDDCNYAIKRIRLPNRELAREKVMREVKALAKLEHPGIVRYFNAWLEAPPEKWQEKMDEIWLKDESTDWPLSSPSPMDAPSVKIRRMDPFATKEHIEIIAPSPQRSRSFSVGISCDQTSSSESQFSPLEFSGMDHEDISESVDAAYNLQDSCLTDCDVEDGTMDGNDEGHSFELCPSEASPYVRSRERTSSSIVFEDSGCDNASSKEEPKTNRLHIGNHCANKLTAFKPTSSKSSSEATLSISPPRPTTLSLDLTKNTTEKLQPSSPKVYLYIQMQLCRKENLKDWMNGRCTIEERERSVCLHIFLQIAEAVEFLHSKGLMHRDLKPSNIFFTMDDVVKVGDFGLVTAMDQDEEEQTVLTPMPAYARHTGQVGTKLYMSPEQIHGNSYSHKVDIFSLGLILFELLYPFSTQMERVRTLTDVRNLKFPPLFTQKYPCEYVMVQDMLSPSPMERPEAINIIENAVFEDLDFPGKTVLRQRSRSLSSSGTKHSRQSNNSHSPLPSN

[21] = biological target: T5, Mitogen-activated protein kinase kinase kinase 2 (Homo sapiens, UniProt Q9Y2U5); assay: Inhibition of MAP3K2 (unknown origin)
T5 sequence (Q9Y2U5 whole entry): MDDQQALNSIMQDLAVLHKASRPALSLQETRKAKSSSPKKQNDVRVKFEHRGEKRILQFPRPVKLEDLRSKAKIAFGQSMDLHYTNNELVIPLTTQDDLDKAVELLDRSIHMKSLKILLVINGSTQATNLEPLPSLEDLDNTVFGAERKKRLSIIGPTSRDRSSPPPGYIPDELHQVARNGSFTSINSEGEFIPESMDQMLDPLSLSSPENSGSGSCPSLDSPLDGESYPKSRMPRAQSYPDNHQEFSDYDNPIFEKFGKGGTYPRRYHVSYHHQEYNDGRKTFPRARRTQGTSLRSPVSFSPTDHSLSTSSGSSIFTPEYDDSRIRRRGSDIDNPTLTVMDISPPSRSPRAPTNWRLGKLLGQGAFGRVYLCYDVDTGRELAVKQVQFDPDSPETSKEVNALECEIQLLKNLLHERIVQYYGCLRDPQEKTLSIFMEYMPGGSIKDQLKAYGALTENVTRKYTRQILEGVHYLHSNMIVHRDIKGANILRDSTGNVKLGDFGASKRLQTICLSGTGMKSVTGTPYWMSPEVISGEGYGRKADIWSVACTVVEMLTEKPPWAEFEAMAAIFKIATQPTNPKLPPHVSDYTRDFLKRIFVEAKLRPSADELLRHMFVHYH

[22] = Solubility of the compound at pH 6.8 using amorphous form of sample; format: physicochemical; conditions: buffer
[23] = Saturation solubility of compound in PEG400/transcutol/benzyl alcohol/water mixture using amorphous form of sample; format: physicochemical
[24] = Stability of compound under light stress assessed as compound decomposition under sunlight with intensity of 4000 KJ/m2, irradiation of 250 W/m2, wavelength of >290 nm, temperature of 37 degreeC for 4 hrs using amorphous form of sample; format: ADME; conditions: read-out: Drug degradation
[25] = Stability of compound under temperature stress assessed as compound degradation at 50 degreeC measured after 7 days using amorphous form of sample; format: physicochemical; conditions: time 7 day; read-out: Drug degradation

T3 sequence (P23458 whole entry, one chain of several): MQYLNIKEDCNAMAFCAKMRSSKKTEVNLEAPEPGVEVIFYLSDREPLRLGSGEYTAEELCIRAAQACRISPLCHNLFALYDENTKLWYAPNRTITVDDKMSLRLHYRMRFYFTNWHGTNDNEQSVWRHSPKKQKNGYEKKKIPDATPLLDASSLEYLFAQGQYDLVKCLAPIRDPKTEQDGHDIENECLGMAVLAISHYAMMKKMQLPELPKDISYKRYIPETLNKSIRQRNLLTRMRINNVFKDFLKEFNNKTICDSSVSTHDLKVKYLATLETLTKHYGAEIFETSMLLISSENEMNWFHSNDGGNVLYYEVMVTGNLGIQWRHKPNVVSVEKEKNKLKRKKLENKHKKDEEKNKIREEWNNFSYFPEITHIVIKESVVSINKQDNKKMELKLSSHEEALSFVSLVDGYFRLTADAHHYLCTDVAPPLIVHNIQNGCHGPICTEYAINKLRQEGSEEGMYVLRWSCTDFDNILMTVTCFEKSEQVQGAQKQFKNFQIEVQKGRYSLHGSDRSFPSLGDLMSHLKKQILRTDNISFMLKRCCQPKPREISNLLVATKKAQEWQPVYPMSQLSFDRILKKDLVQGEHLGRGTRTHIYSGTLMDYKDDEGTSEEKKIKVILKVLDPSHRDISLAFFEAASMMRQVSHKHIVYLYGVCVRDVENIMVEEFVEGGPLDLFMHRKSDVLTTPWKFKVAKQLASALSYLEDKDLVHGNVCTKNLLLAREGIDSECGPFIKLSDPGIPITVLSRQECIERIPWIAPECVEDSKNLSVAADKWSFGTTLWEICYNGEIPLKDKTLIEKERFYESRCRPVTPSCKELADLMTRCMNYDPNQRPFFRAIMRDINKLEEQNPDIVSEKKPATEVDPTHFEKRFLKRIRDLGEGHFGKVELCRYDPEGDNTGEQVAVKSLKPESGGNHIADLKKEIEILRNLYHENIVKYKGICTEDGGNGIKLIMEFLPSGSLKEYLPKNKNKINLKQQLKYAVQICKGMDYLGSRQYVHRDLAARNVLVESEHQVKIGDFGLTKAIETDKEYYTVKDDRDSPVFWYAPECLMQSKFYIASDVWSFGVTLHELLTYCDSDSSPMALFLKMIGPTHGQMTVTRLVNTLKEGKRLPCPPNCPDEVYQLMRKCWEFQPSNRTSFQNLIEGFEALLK
Chain of JAK2/JAK1 (P23458 whole entry): as the sequence (P23458 whole entry, one chain of several) above
Chain of JAK2/JAK1 (O60674 whole entry): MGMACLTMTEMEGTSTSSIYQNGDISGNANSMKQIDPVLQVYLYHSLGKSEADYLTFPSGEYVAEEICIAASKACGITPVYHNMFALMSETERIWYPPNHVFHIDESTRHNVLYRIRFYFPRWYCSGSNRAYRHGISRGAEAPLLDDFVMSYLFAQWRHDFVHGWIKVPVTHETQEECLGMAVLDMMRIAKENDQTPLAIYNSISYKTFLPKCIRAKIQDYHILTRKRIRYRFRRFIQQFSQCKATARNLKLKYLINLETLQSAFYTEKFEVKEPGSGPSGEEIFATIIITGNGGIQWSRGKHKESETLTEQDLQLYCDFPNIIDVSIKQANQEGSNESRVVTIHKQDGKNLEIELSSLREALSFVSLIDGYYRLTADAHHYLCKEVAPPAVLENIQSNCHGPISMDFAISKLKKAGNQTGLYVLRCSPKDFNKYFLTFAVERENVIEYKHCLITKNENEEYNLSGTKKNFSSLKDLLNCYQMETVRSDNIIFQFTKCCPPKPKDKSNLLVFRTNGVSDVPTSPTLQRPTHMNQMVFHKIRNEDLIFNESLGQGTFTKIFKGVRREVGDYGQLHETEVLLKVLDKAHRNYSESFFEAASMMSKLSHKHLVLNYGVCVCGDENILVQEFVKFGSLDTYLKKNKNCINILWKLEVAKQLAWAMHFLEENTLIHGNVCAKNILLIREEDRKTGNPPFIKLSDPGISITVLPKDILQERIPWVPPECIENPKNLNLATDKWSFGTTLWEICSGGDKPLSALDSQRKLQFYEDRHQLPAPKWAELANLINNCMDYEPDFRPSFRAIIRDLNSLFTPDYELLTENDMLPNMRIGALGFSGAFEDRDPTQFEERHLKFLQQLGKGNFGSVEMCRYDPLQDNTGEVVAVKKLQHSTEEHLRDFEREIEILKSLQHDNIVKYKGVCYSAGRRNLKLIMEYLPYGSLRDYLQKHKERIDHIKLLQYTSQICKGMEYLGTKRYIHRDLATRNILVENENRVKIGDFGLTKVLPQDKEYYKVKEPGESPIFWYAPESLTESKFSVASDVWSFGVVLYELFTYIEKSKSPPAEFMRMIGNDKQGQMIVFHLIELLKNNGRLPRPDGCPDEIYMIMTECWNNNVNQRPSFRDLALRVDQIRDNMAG
Chain of Tyrosine-protein kinase JAK2 (O60674 whole entry, the tested form may be a part): as the sequence (O60674 whole entry) above
Chain of Tyrosine-protein kinase JAK1 (P23458 whole entry, the tested form may be a part): as the sequence (P23458 whole entry, one chain of several) above
Chain of Non-receptor tyrosine-protein kinase TYK2 (P29597 whole entry, the tested form may be a part): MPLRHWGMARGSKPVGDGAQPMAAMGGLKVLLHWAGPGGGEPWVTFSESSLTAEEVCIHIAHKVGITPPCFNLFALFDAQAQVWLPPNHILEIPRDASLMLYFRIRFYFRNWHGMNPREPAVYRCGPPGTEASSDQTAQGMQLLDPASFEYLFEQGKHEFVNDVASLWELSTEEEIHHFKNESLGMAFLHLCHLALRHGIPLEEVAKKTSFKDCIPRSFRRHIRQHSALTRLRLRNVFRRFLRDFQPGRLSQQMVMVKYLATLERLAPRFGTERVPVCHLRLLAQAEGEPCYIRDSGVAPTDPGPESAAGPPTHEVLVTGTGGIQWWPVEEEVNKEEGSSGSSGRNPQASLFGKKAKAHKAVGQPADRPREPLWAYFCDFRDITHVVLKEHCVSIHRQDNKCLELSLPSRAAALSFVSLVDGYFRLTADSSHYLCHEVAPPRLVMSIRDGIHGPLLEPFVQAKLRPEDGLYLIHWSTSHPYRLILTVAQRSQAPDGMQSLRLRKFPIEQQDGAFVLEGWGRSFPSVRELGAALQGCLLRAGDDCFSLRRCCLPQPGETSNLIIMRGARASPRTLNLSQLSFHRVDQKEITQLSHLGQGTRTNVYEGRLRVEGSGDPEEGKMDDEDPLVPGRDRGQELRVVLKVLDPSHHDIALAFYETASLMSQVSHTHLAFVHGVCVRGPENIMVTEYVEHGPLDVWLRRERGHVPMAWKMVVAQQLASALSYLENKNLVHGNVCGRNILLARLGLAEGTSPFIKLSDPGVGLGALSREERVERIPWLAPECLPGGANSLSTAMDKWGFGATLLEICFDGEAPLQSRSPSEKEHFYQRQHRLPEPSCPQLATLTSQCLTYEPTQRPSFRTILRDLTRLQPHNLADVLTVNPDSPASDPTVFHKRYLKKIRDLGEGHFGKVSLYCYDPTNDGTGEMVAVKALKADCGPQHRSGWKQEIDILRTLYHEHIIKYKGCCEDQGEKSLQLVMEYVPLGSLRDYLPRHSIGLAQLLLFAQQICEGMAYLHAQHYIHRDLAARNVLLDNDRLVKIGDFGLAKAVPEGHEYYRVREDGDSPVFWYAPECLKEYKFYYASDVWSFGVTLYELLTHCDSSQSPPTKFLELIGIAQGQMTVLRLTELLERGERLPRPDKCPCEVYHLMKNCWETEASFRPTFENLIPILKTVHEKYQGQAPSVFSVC

Compound `CCOC(=O)Oc1cccc(Nc2cc(Nc3ccccc3Cl)c(C(N)=O)cn2)n1` has an IC50 [1] of 5220 nM, an IC50 (JAK2/JAK1) of 71 nM and a half-life at 1 µM [2] of 4 min. For the same compound, the half-life [3] was 7 min and the half-life [4] was roughly 4 min.

In the case of `Cc1cccc(Nc2cc(Nc3ccccc3Cl)c(C(N)=O)cn2)n1`, the IC50 (JAK2/JAK1) is reported as 85 nM, the half-life at 1 µM [2] is reported as greater than 240 min and the half-life [3] is reported as greater than 240 min. For the same compound, the inhibition at 10 µM (C-C motif chemokine 17) was 100%, the Papp [5] was 6.7 ×10⁻⁶ cm/s and the logD [6] was 4.4. For the same compound, the solubility thermodynamic [7] was 0.1 µg/mL (≈ 0.000283 mM), the solubility thermodynamic [8] was 2800 µg/mL (≈ 7.91 mM) and the inhibition (Homo sapiens [9]) was “Active”. For the same compound, the inhibition (Homo sapiens [10]) was “Active”, the inhibition (Homo sapiens [11]) was “Active” and the concentration at 40 h, 0.5 % [12] was 33 µM. For the same compound, the Drug uptake [13] was 0.004 µM and the Activity (Homo sapiens [14]) was “Active”.

In the case of `COc1ccccc1Nc1cc(Nc2ccc(CC(=O)O)cn2)ncc1C(N)=O`, the IC50 [15] is reported as 5 nM, the IC50 [1] is reported as 11 nM and the IC50 [16] is reported as 10 nM. It also gave an IC50 [17] of 7 nM, an IC50 (JAK3/JAK1 [18]) of 7020 nM and an IC50 (JAK2/JAK1) greater than 10000 nM. For the same compound, the IC50 (JAK3/JAK1 [19]) was greater than 40000 nM, the half-life at 1 µM [2] was greater than 240 min and the half-life [3] was less than 240 min. For the same compound, the Papp [5] was 0.5 ×10⁻⁶ cm/s, the logD [6] was 0.25 and the IC50 [20] was less than 100 nM. For the same compound, the IC50 [21] was less than 100 nM.

`COC(=O)Cc1ccc(Nc2cc(Nc3ccccc3Cl)c(C(N)=O)cn2)nc1` showed an IC50 [15] of 9 nM, an IC50 [1] of 10 nM and an IC50 [16] of 13 nM. For the same compound, the IC50 (JAK3/JAK1 [18]) was 27 nM, the IC50 (JAK2/JAK1) was 37 nM and the IC50 (JAK3/JAK1 [19]) was 7850 nM. The half-life at 1 µM [2] was 5 min, the half-life [3] was 12 min and the logD [6] was 3.8. For the same compound, the solubility [22] was 3 µg/mL (≈ 0.00728 mM), the solubility thermodynamic [23] was 5400 µg/mL (≈ 13.1 mM) and the degraded at 4 h [24] was 7%. The degraded at 168 h [25] was 11%.

Source: ChEMBL document CHEMBL5370660, “Design of a Supersoft Topical JAK Inhibitor, Which Is Effective in Human Skin but Rapidly Deactivated in Blood” (J Med Chem, 2023)
